Structures are written as SMILES. Where “and” joins values, the source holds several entries; their conditions need not be identical. Identical values can stand only once. Like-named read-outs stand apart in the source and are kept apart here.

The values that follow come from paper PMC3252880, “Synthesis of 2-amino-3-arylpropan-1-ols and 1-(2,3-diaminopropyl)-1,2,3-triazoles and evaluation of their antimalarial activity” (Beilstein Journal of Organic Chemistry, 2011).

In data set [1] the test system is chloroquine-sensitive (CQS) strain of P. falciparum (D10). The data set is described as follows: in vitro antiplasmodial activity, chloroquine-sensitive strain D10. It counts as cell-based, Plasmodium falciparum. The following applies: for antiplasmodial activity (in words): in vitro, P. falciparum. As to the method:
All samples were tested in triplicate on one occasion against a chloroquine-sensitive (CQS) strain of P. falciparum (D10). […] The antiplasmodial and cytotoxicity assays were performed as described previously.

Data set [2] relates to Chinese hamster ovary (CHO) cell-line. The data set is described as follows: in vitro cytotoxicity against CHO cell-line. It counts as cell-based. Conditions: for IC50: read-out: CHO: IC50; for SI (Selectivity Index) = IC50 CHO/IC50 D10: ratio CHO/D10. As to the method: At first, compounds 6a–c, 8a–e, 9a–d, 12a,b, 14a–e, 15a–f and 16a–g were screened for in vitro antiplasmodial activity. All samples were tested in triplicate on one occasion against a chloroquine-sensitive (CQS) strain of P. falciparum (D10). Those samples showing antiplasmodial activity were then tested in triplicate on one occasion against a chloroquine-resistant (CQR) strain of P. falciparum (Dd2) and screened for in vitro cytotoxicity against a Chinese hamster ovary (CHO) cell-line, in triplicate on one occasion. The antiplasmodial and cytotoxicity assays were performed as described previously.

Data set [3] relates to chloroquine-resistant (CQR) strain of P. falciparum (Dd2). The data set is described as follows: in vitro antiplasmodial activity, chloroquine-resistant strain Dd2. It counts as cell-based, Plasmodium falciparum. The following applies: for RI (Resistance Index) = IC50 Dd2/IC50 D10: ratio Dd2/D10.
The next data set has as its system P. berghei. Further details: method as in PMID 17194200, PMID 14500986. The following applies: in vivo; cited from earlier work.
The next data set has as its system P. falciparum. Details: method as in PMID 17194200, PMID 14500986. The following applies: cited from earlier work.
[4] abbreviates: CQS strain D10, tested in triplicate on one occasion, hydrophobic samples added as suspension, read-out: D10: IC50.
Setting [5] is: Plasmodium falciparum, D10, CQS strain D10, tested in triplicate on one occasion, hydrophobic samples added as suspension, read-out: D10: IC50.
Where [6] appears, read: Plasmodium falciparum, DD2, read-out: Dd2: IC50.
Where [7] appears, read: Plasmodium falciparum, D10, read-out: D10: IC50, CQS strain D10, tested in triplicate on one occasion, hydrophobic samples added as suspension.
[8] abbreviates: CHO cell-line, in triplicate on one occasion.
Where [9] appears, read: CQR strain Dd2, tested in triplicate on one occasion, read-out: Dd2: IC50.
Setting [10] is: Cricetulus griseus, CHO cell-line, in triplicate on one occasion.
[11] abbreviates: read-out: D10: IC50, CQS strain D10, tested in triplicate on one occasion, hydrophobic samples added as suspension.
The mark [12] stands for this setting: Plasmodium falciparum, CQR strain Dd2, tested in triplicate on one occasion, read-out: Dd2: IC50.

`COC(c1ccc(Cl)cc1)C(CO)NCc1ccccc1` (racemic) [Compound 8c]: in data set [1] (setting [4]), the IC50 worked out at 199 µM.
The same measure, in the same setting: the value for `[N-]=[N+]=NCC1CN1Cc1ccc(Cl)cc1` (centres unmarked) [Compound 14b] was 101 µM.
As to `CCN(CC)CC(Cn1cc(-c2ccc(OC)cc2)nn1)NCc1ccccc1` (centres unmarked) [Compound 16e], in data set [1] (setting [5]), the IC50 amounted to 171 µM.
For the molecule `c1ccc(CN2CC2Cn2cc(-c3ccccc3)nn2)cc1` (centres unmarked) [Compound 15a, 1-Phenylmethyl-2-[(4-phenyl-1,2,3-triazol-1-yl)methyl]aziridine], the IC50 in data set [2] (Cricetulus griseus, CHO) is above 530 µM; in data set [3] (setting [6]), 107 µM; in data set [1] (setting [7]) it was 34.4 µM. Also, in data set [3], the “RI (Resistance Index) = IC50 Dd2/IC50 D10” value stood at 3.1.
On to `Clc1ccc(CN2CC2Cn2cc(-c3ccccc3)nn2)cc1` (centres unmarked) [Compound 15b], for which the IC50 in data set [1] (setting [4]) turned out to be 41.3 µM.
Still for that read-out and setting: the value for `OCC(NCc1ccc(Cl)cc1)C(O)c1ccccc1` (racemic) [Compound 9d] was 80.7 µM.
On to `OCC(NCc1ccccc1)C(O)c1ccc(Cl)cc1` (stereo not drawn) [Compound 9a, anti-2-(N-Benzylamino)-1-(4-chlorophenyl)propan-1,3-diol], for which the IC50 in data set [2] (setting [8]) was above 530 µM; in data set [3] (setting [9]) it was 8.47 µM; in data set [1] (setting [4]) it was ≤ 25 µM and 25.2 µM. In data set [3], the “RI (Resistance Index) = IC50 Dd2/IC50 D10” value was 0.3.
As for `CC[C@H]1CN2CCc3cc(OC)c(OC)cc3[C@@H]2C[C@@H]1C[C@H]1NCCc2cc(OC)c(OC)cc21` [Emetine, reference compound], in data set [2] (setting [10]), the IC50 was 0.27 µM.
With `COc1ccc(C(OC)C(CO)NCC(C)C)cc1` (racemic) [Compound 8d], the IC50 in data set [2] (setting [8]) was above 530 µM; in data set [3] (setting [9]), 25.7 µM; in data set [1] (setting [4]), 38.6 µM. Further, in data set [3], the “RI (Resistance Index) = IC50 Dd2/IC50 D10” value is listed as 0.7.
For `COc1ccc(CN2CC2Cn2cc(-c3ccccc3)nn2)cc1` (centres unmarked) [Compound 15c], the IC50 was above 530 µM in data set [2] (Cricetulus griseus, CHO); 55.6 µM in data set [3] (setting [6]); at most 25 µM in data set [1] (setting [7]); 25.7 µM in data set [1] (setting [11]). Moreover, the “RI (Resistance Index) = IC50 Dd2/IC50 D10” value in data set [3] amounted to 2.2. Moreover, in data set [1], the “antiplasmodial activity (in words)” value was “weak antiplasmodial activity”.
In the case of `CN(C)CC(Cn1cc(-c2ccccc2)nn1)NCc1ccccc1` (centres unmarked) [Compound 16g], the IC50 in data set [1] (setting [4]) stood at 69.6 µM.
For `[N-]=[N+]=NCC1CN1Cc1ccccc1` (centres unmarked) [Compound 14a, 2-Azidomethyl-1-(phenylmethyl)aziridine], the IC50 is above 530 µM in data set [2] (Cricetulus griseus, CHO); 467 µM in data set [3] (setting [6]); 230 µM in data set [1] (setting [7]). For the same molecule, the “RI (Resistance Index) = IC50 Dd2/IC50 D10” value in data set [3] is 2.
Take `Cc1ccc(-c2cn(CC3CN3Cc3ccccc3)nn2)cc1` (centres unmarked) [Compound 15d]: the IC50 in data set [2] (Cricetulus griseus, CHO) was above 530 µM; in data set [3] (setting [6]), 21 µM; in data set [1] (setting [7]), at most 25 µM; in data set [1] (setting [11]), 20.4 µM. Further, the “RI (Resistance Index) = IC50 Dd2/IC50 D10” value in data set [3] was 1. Besides, the “antiplasmodial activity (in words)” value in data set [1] is on record as “weak antiplasmodial activity”.
`CCCNC(CO)C(OC)c1ccccc1F` (racemic) [Compound 8e]: the IC50 in data set [2] (setting [8]) is above 530 µM; in data set [3] (setting [9]), 21.9 µM; in data set [1] (setting [4]), 38.5 µM. Further, the “RI (Resistance Index) = IC50 Dd2/IC50 D10” value in data set [3] came out at 0.6.
Regarding `CC(C)NCC(O)COc1cccc2ccccc12` (centres unmarked) [propranolol], the “parasitaemia of P. berghei infections” value in the data set with P. berghei was “reduce the parasitaemia”. In the data set on P. falciparum, the “infection of erythrocytes by P. falciparum” value is on record as “inhibit infection of erythrocytes”.
In the case of `COc1ccc(-c2cn(CC3CN3Cc3ccccc3)nn2)cc1` (centres unmarked) [Compound 15e], in data set [1] (setting [7]), the IC50 came to 40.5 µM.
Regarding `CCN(CC)CCCC(C)Nc1ccnc2cc(Cl)ccc12` (centres unmarked) [CQ, reference compound], the IC50 in data set [3] (setting [6]) turned out to be 0.0756 µg/mL; in data set [1] (Plasmodium falciparum, D10, read-out: D10: IC50, CQS strain D10, n = 6 data sets averaged) it was 0.0191 µg/mL. In addition, the “RI (Resistance Index) = IC50 Dd2/IC50 D10” value in data set [3] was determined as 3.9.
With `Cc1ccc(C(O)C(CO)NCc2ccccc2)cc1` (racemic) [Compound 9c], the IC50 in data set [1] (setting [4]) was 130 µM.
As to `OCC(Cc1ccc(Cl)cc1)NCc1ccccc1` (centres unmarked) [Compound 6a], the half-maximal inhibitory concentration (IC50) in data set [2] (setting [8]) was 138 µM; in data set [3] (setting [9]), 10.9 µM; in data set [1] (setting [4]) it was ≤ 25 µM and 12.6 µM. In data set [2], the “SI (Selectivity Index) = IC50 CHO/IC50 D10” value worked out at 11. For the same molecule, in data set [3], the “RI (Resistance Index) = IC50 Dd2/IC50 D10” value stood at 0.9.
As for `COc1ccc(CN2CC2CN=[N+]=[N-])cc1` (centres unmarked) [Compound 14c], the IC50 in data set [1] (setting [4]) was found to be 160 µM.
The same measure, in the same setting: next, `COc1ccc(CC(CO)NCC(C)C)cc1` (centres unmarked) [Compound 6b]: 282 µM; `[N-]=[N+]=NCC1CN1Cc1ccccc1Cl` (centres unmarked) [Compound 14d]: 93.7 µM; `[N-]=[N+]=NCC1CN1Cc1cccc(Cl)c1` (centres unmarked) [Compound 14e]: 180 µM.
Take `CN(C)CC(Cn1cc(-c2ccccc2)nn1)NCc1ccccc1Cl` (centres unmarked) [Compound 16f]: the IC50 in data set [2] (setting [10]) is 182 µM; in data set [3] (setting [12]) it was 13 µM. Moreover, the “SI (Selectivity Index) = IC50 CHO/IC50 D10” value in data set [2] is given as 16.1. Also, the “RI (Resistance Index) = IC50 Dd2/IC50 D10” value in data set [3] was 1.2.
As to `COC(c1ccccc1)C(CO)NCc1ccccc1` (racemic) [Compound 8b], the half-maximal inhibitory concentration (IC50) in data set [1] (setting [4]) amounted to 144 µM.
Same read-out and setting: next, `COC(c1ccccc1)C(CO)NC(C)C` (racemic) [Compound 8a]: 370 µM.
For the molecule `CC(C)(C)N[C@H](CO)[C@H](O)c1ccccc1F` [Compound 12b], the IC50 in data set [1] (setting [5]) stood at 60.5 µM.
`CCN(CC)CC(Cn1cc(-c2ccccc2)nn1)NCc1ccc(OC)cc1` (centres unmarked) [Compound 16c]: the IC50 in data set [1] (setting [4]) turned out to be 140 µM.
On to `CCN(CC)CC(Cn1cc(-c2ccccc2)nn1)NCc1ccc(Cl)cc1` (centres unmarked) [Compound 16b], for which the IC50 was above 530 µM in data set [2] (setting [8]); 176 µM in data set [3] (setting [9]); ≤ 25 µM and 25.9 µM in data set [1] (setting [4]). For the same molecule, the “RI (Resistance Index) = IC50 Dd2/IC50 D10” value in data set [3] was 6.8.
As for `CCN(CC)CC(Cn1cc(-c2ccccc2)nn1)NCc1ccccc1` (centres unmarked) [Compound 16a, 3-Diethylamino-2-(phenylmethyl)amino-1-(4-phenyl-1,2,3-triazol-1-yl)propane], the IC50 in data set [2] (setting [10]) is above 530 µM; in data set [3] (setting [12]) it was 231 µM; in data set [1] (setting [4]), 22.1 µM; in data set [1] (setting [5]), at most 25 µM. Also, the “RI (Resistance Index) = IC50 Dd2/IC50 D10” value in data set [3] was 10.5.
Regarding `OCC(NCc1ccccc1)C(O)c1ccccc1Cl` (racemic) [Compound 9b], the IC50 in data set [2] (setting [8]) was above 530 µM; in data set [3] (setting [9]), 13.6 µM; in data set [1] (setting [4]) it was ≤ 25 µM and 21.2 µM. Also, the “RI (Resistance Index) = IC50 Dd2/IC50 D10” value in data set [3] was 0.6.
`CCCNC(CO)Cc1ccccc1F` (centres unmarked) [Compound 6c]: the half-inhibitory concentration (IC50) in data set [1] (setting [4]) was found to be 217 µM.
For the molecule `CCN(CC)CC(Cn1cc(-c2ccc(C)cc2)nn1)NCc1ccccc1` (centres unmarked) [Compound 16d], in data set [1] (setting [4]), the IC50 worked out at 32.5 µM.
In turn, `COc1ccccc1[C@@H](O)[C@@H](CO)NC(C)(C)C` [Compound 12a, syn-2-(N-tert-Butylamino)-1-(2-methoxyphenyl)propan-1,3-diol] displayed a melting point of 112.8 °C. In addition, the IC50 in data set [1] (setting [5]) was 98.7 µM.

The IC50 is the concentration needed to halve the response being measured. One may read the melting point as the temperature of the solid-liquid transition.
